Source: PubChem BioAssay AID1963440 (Molecular Pharmacology Branch, DTP, NCI, 2024)

System: NCI-H1417 complex spheroids, growth % test/control
Assay: Anticancer human tumor NCI-H1417 cell line growth inhibition [Asc];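 note: spheroids exposed to compounds for 7 days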;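 for viability, T/C: 100% = DMSO vehicle control wells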
Settings: for IC50: curve of first compound; for viability, T/C: stronger effect = lower value
Method: Multicellular complex tumor spheroid response to apoptosis pathway targeting inhibitors Alrizomadlin, Pelcitoclax, and Dasminapant in combination with a variety of drugs and investigational agents in selected tumor cell lines
The MDM2 inhibitor alrizomadlin, the Bcl-2/Bcl-xL inhibitor pelcitoclax, and the IAPs inhibitor dasminapant were evaluated both individually and in combination with standard of care and investigational anticancer small molecules within a complex spheroid model of solid tumors. . Complex spheroids include a stromal component modeled by human endothelial cells (HUVEC) and fibroblasts modeled by human mesenchymal stem cells (MSCs). The concentration ranges selected for each drug and investigational agent were based upon clinically achievable concentrations if the clinical Cmax of the agent was known.
Compounds. The drugs and investigational agents: alrizomadlin (APG-115; NSC831270), pelcitoclax (APG-1252; NSC835773), dasminapant (APG-1387;NSC834197), TAK-243 (NSC785004), copanlisib (NSC809693), olaparib (NSC753686), talazoparib (NSC767125), cobimetinib (NSC 768068), eltanexor (KPT-8602, NSC 794443), abemaciclib (NSC 768073), sotorasib (NSC818433), adagrasib (NSC 831453), MRTX-1133 (NSC 836407), Iadademestat (ORY1001, NSC 806812), and RMC-4630 (NSC839698), were obtained from the NCI Developmental Therapeutics Program Chemical Repository. The FDA-approved anticancer drug set is available from the Developmental Therapeutics Program at https://dtp.cancer.gov/organization/dscb/obtaining/available plates.htm. […] The stock solutions were prepared in dimethyl sulfoxide (DMSO, Sigma-Aldrich, St. Louis, MO, cat. D2650) at 800-fold the tested concentration and stored at -70 degrees C prior to their use. All drugs and investigational agents were tested over a range starting from a high concentration at or near the clinical Cmax and decreasing in half-log increments. If the clinical Cmax for an agent had not been determined, the highest concentration tested was 10 microM.
The patient-derived cancer (PDC) cell lines include five colon adenocarcinomas: 186277-243-T-J2-PDC, 616215-338-R-J1-PDC, 439559-082-T-J2-PDC, 463943-066-T-J2-PDC, and 519858-162-T-J1-PDC; three pancreatic carcinomas: 323965-272-R-J2-PDC, 521955-158-R6-J3-PDC, and 521955-158-R2-J5-PDC; two uterine sarcomas: 327498-152-R-J2-PDC and 993429-296-R-J1-PDC; two rhabdomyosarcomas: 755483-174-R-J1-PDC and 772245-204-R-J1-PDC; two soft tissue sarcomas: 126254-015-R-J1-PDC and 494315-158-R-J1-PDC; two malignant fibrous histiocytomas: 317291-083-R-J1-PDC and 596521-263-R-J1-PDC; two breast carcinomas: 171881-019-R-J1-PDC and 885512-296-R-J2-PDC; and one ovarian carcinoma: 6556581-035-R-J-PDC were obtained from the NCI PDMR, (https://pdmr.cancer.gov). The established cell lines HSSY-2 synovial sarcoma (RRID:CVCL 8719), SYO-1 synovial sarcoma (RRID:CVCL_7146), MPNST malignant peripheral neural sheath tumor were obtained from the Sloan Kettering Institute. The following established cell lines were purchased from the American Type Culture Collection (ATCC, Manassas, VA), Sor the received from the NCI repository:, PANC-1 pancreatic carcinoma (CRL-1469, RRID:CVCL_0480), OVCAR-5 ovarian carcinoma (RRID:CVCL_1628), OVCAR-8 ovarian carcinoma (RRID:CVCL_1629), , MCF-7 breast carcinoma (CRL-12584, RRID:CVCL_0031), MDA-MB-231 breast carcinoma (CRL-12532, RRID:CVCL_0062), NCI-H1876 small cell lung carcinoma (CRL-5902, RRID:CVCL_1503), NCI-H510A small cell lung carcinoma (HTB-184, RRID:CVCL_1565), NCI-H1417 (CRL-5869, RRID:CVCL_1469), and NCI-H196 small cell lung carcinoma (CRL-5823, RRID:CVCL_1509). Dr. Peter Houghton (Greehey Children's Cancer Research Institute, University of Texas Health Science Center, San Antonio, TX) provided Rh-18 rhabdomyosarcoma (RRID:CVCL_1659). Pooled donor human umbilical vein endothelial cells (HUVEC, Lonza, cat. CC-2519) and human mesenchymal stem cells (hMSC, Lonza, cat. PT-2501) were purchased from Lonza (Walkersville, MD).
Cell Culture. […]

## C=CC(=O)N1CCN(c2nc(=O)n(-c3c(C)ccnc3C(C)C)c3nc(-c4c(O)cccc4F)c(F)cc23)C(C)C1 (stereo not given) + Cc1c(S(C)(=O)=O)c(-c2cc(F)cc(N3CCN(c4ccc(NS(=O)(=O)c5ccc(NC(CCN6CCC(C(=O)OCCCP(=O)(O)O)CC6)CSc6ccccc6)c(S(=O)(=O)C(F)(F)F)c5)cc4)CC3)c2)c(-c2ccc(Cl)cc2)n1C(C)C
Second compound 0.1 µM
  IC50: > 10000 nM
Second compound 0.316 µM
  IC50: 3960 nM
Second compound 1 µM
  IC50: < 31.6 nM
Second compound 3.16 µM
  IC50: < 31.6 nM
Second compound 10 µM
  IC50: < 31.6 nM
Second compound 0.1 µM, first compound 0.0316 µM
  viability, T/C: 79.9%
Second compound 0.1 µM, first compound 0.1 µM
  viability, T/C: 97.7%
Second compound 0.1 µM, first compound 0.316 µM
  viability, T/C: 94%
Second compound 0.1 µM, first compound 1 µM
  viability, T/C: 88.7%
Second compound 0.1 µM, first compound 3.16 µM
  viability, T/C: 79.5%
Second compound 0.1 µM, first compound 10 µM
  viability, T/C: 76.5%
Second compound 0.316 µM, first compound 0.0316 µM
  viability, T/C: 50.7%
Second compound 0.316 µM, first compound 0.1 µM
  viability, T/C: 52.8%
Second compound 0.316 µM, first compound 0.316 µM
  viability, T/C: 59.2%
Second compound 0.316 µM, first compound 1 µM
  viability, T/C: 55.8%
Second compound 0.316 µM, first compound 3.16 µM
  viability, T/C: 60.4%
Second compound 0.316 µM, first compound 10 µM
  viability, T/C: 26.5%
Second compound 1 µM, first compound 0.0316 µM
  viability, T/C: 12.8%
Second compound 1 µM, first compound 0.1 µM
  viability, T/C: 19%
Second compound 1 µM, first compound 0.316 µM
  viability, T/C: 19.2%
Second compound 1 µM, first compound 1 µM
  viability, T/C: 27.2%
Second compound 1 µM, first compound 3.16 µM
  viability, T/C: 15.7%
Second compound 1 µM, first compound 10 µM
  viability, T/C: 6.31%
Second compound 3.16 µM, first compound 0.0316 µM
  viability, T/C: 3.89%
Second compound 3.16 µM, first compound 0.1 µM
  viability, T/C: 4.22%
Second compound 3.16 µM, first compound 0.316 µM
  viability, T/C: 4.64%
Second compound 3.16 µM, first compound 1 µM
  viability, T/C: 3.72%
Second compound 3.16 µM, first compound 3.16 µM
  viability, T/C: 3.98%
Second compound 3.16 µM, first compound 10 µM
  viability, T/C: 3.94%
Second compound 10 µM, first compound 0.0316 µM
  viability, T/C: 2.86%
Second compound 10 µM, first compound 0.1 µM
  viability, T/C: 2.89%
Second compound 10 µM, first compound 0.316 µM
  viability, T/C: 3.43%
Second compound 10 µM, first compound 1 µM
  viability, T/C: 2.4%
Second compound 10 µM, first compound 3.16 µM
  viability, T/C: 3.1%
Second compound 10 µM, first compound 10 µM
  viability, T/C: 3.85%
